Consider 15 molecules from ChEMBL document CHEMBL4842345, “Design, synthesis and biological evaluation of tanshinone IIA-based analogues: Potent inhibitors of microtubule formation and angiogenesis” (Eur J Med Chem, 2021).

pIC50: −log10 of the molar value.

Data set [1] concerns HepG2. Nature of the data set: Antiproliferative activity against human HepG2 cells assessed as reduction in cell viability measured after 72 hrs by MTT assay. Format: functional, cell-based. The settings on record: HepG2, 72 h. Background: Tetrazolium assays rely on reduction of a dye to a coloured formazan, in cell work by metabolically active cells.
Data set [2] relates to HeLa. Nature of the data set: Antiproliferative activity against human HeLa cells assessed as reduction in cell viability measured after 72 hrs by MTT assay. It is filed as functional, cell-based.
In data set [3] the test system is MCF7. The data set is described as follows: Antiproliferative activity against human MCF7 cells assessed as reduction in cell viability measured after 72 hrs by MTT assay. Format: functional, cell-based. The settings on record: MCF7, 72 h.
For data set [4], the system named is MGC-803. The data set is described as follows: Antiproliferative activity against human MGC-803 cells assessed as reduction in cell viability measured after 72 hrs by MTT assay. Format: functional, cell-based. The settings on record: MGC-803, 72 h.
Data set [5] deals with U-937. The data set is described as follows: Antiproliferative activity against human U-937 cells assessed as reduction in cell viability measured after 72 hrs by MTT assay. It is filed as functional, cell-based. Conditions: U-937, 72 h.
Data set [6] relates to A549. Nature of the data set: Antiproliferative activity against human A549 cells assessed as reduction in cell viability measured after 72 hrs by MTT assay. The settings on record: A549, 72 h. It is filed as functional, cell-based.
A short description of data set [7]: Kinetic solubility of the compound at pH 2 by nephelometry. It is filed as physicochemical. Conditions: buffer, read-out: Kinetic_solubility.
Data set [8] is described as follows: Kinetic solubility of the compound at pH 6.5 by nephelometry. Format: physicochemical. Conditions: buffer, read-out: Kinetic_solubility.
Data set [9] is described as follows: Metabolic stability in human liver microsomes assessed as degradation half life. It is filed as ADME, Microsome. Conditions: liver microsomes.
Data set [10] is described as follows: Intrinsic clearance in human liver microsome. It is filed as ADME, microsomes. The settings on record: liver microsomes, read-out: CLH.

In the case of `Cc1cc2c(o1)-c1c(O)cccc1C(=O)C2=O`, the pIC50 in [1], in data set [2], in [3], in data set [4], in data set [5] and in data set [6] was less than 5.30 throughout.
For `Cc1coc2c1C(=O)C(=O)c1cccc(O)c1-2`, the pIC50 in data set [1], in data set [2], in [3], in [4], in [5] and in data set [6] was less than 5.30 throughout.
For `Cc1coc2c1C(=O)C(=O)c1cc(O)ccc1-2`, the negative-log IC50 (pIC50) in [1], in data set [2], in data set [3], in data set [4], in data set [5] and in data set [6] was less than 5.30 throughout.
With `Cc1cc2c(o1)-c1ccc(C(C)C)cc1C(=O)C2=O`, the pIC50 is 5.62 in data set [1]; 5.67 in [2]; 5.62 in [3]; 5.71 in data set [4]; 5.78 in data set [5]; 5.60 in data set [6].
On to `Cc1coc2c1C(=O)C(=O)c1c-2ccc2c1CCCC2(C)C` [TANSHINONE IIA], for which the pIC50 was 5.31 in data set [1]; 5.46 in data set [2]; less than 5.30 in data set [3]; less than 5.30 in data set [4]; less than 5.30 in data set [5]; 5.66 in data set [6]. The solubility kinetic in data set [7] and in data set [8] was less than 5 µg/mL each time. In addition, the half-life in data set [9] amounted to 10 min. Further, the microsomal CLint in data set [10] is 45 µL/min/mg.
As for `Cc1cc2c(o1)-c1ccc(O)cc1C(=O)C2=O`, the pIC50 in data set [1] is 5.40; in [2] it was 5.64; in [3], less than 5.30; in data set [4], 5.53; in data set [5] it was 5.45; in data set [6] it was 5.75.
On to `Cc1cc2c(o1)-c1ccc3c(c1C(=O)C2=O)CCCC3(C)C`, for which the pIC50 is 5.91 in data set [1]; 5.93 in data set [2]; less than 5.30 in data set [3]; 5.55 in data set [4]; 5.57 in data set [5]; 6.70 in data set [6].
`COc1ccc2c(c1)C(=O)C(=O)c1c(C)coc1-2`: the pIC50 in data set [1] was less than 5.30; in [2] it was 5.55; in [3], less than 5.30; in [4] it was 5.40; in [5] it was 5.44; in data set [6], 6.03.
Regarding `COc1cccc2c1-c1occ(C)c1C(=O)C2=O`, the pIC50 in data set [1] was 5.42; in data set [2] it was 5.63; in [3], less than 5.30; in data set [4] it was 5.41; in data set [5], less than 5.30; in data set [6], 6.37.
For `Cc1cc2c(o1)-c1ccccc1C(=O)C2=O`, the pIC50 in data set [1] was 5.56; in data set [2], 5.82; in [3], 5.89; in data set [4], 5.45; in data set [5], 5.80; in [6] it was 5.52.
On to `Cc1coc2c1C(=O)C(=O)c1ccccc1-2`, for which the pIC50 in data set [1] is 5.69; in data set [2], 6.02; in data set [3], 5.80; in [4], 5.72; in data set [5], 5.92; in [6], 6.07.
Take `COc1ccc2c(c1)C(=O)C(=O)c1cc(C)oc1-2`: the pIC50 is 5.46 in data set [1]; 5.86 in data set [2]; less than 5.30 in data set [3]; less than 5.30 in data set [4]; 5.47 in [5]; 6.12 in [6].
Consider `Cc1coc2c1C(=O)C(=O)c1cc(C(C)C)ccc1-2`, for which the pIC50 in data set [1] is 5.49; in data set [2], 5.37; in data set [3], 5.45; in [4] it was less than 5.30; in [5] it was 5.66; in data set [6], 5.82.
For the molecule `COc1cccc2c1-c1oc(C)cc1C(=O)C2=O`, the pIC50 was 5.32 in [1]; 5.68 in data set [2]; less than 5.30 in [3]; less than 5.30 in data set [4]; 5.49 in data set [5]; 5.56 in data set [6].
Take `Cc1coc2c1C(=O)C(=O)c1cc(Cl)ccc1-2`: the pIC50 in data set [1] is 5.89; in data set [2], 5.81; in [3], 5.35; in data set [4], 5.64; in [5] it was 5.60; in data set [6], 5.75.

For orientation: pIC50 means the IC50 on a negative log10 scale, so that one unit is a factor of ten. In general, half-life refers to how long it takes for the measured level to halve.
